Consider 9 molecules from PubChem BioAssay (NCI).

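A five-concentration, 48-hour dose response in 96-well plates underlies each endpoint, interpolated linearly between surrounding concentrations. At the GI50, growth is halved. TGI is the concentration that stops growth completely.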

Among the test systems are A549 NSCLC; HCC-2998 colon; HT29 colon; K-562 leukemia; KM12 colon; M14 melanoma; NCI-H226 lung; OVCAR-3 ovarian; OVCAR-5 ovarian; OVCAR-8 ovarian; SK-MEL-28 melanoma; SN12C renal; SNB-75 CNS; U251 CNS; CAKI-1 renal; SF-539 CNS; UO-31 renal.
What all share (test): inhibition of tumour cell growth, NCI panel, 48 h

For the molecule `O=C1CCCCC1CN1CCCC1` (stereo not drawn), the TGI in the assay on A549 NSCLC, with HCC-2998 colon, with HT29 colon, in the assay with K-562 leukemia, in the assay on KM12 colon and in the assay on M14 melanoma was above 100 µM in each case. The TGI in the assay with NCI-H226 lung, with OVCAR-3 ovarian, in the assay on OVCAR-5 ovarian, in the assay on OVCAR-8 ovarian, with SK-MEL-28 melanoma and with SN12C renal was above 100 µM each time. For the same molecule, the TGI in the assay on SNB-75 CNS and with U251 CNS was above 100 µM throughout.

For `CC(=O)C1C(=O)C(=O)N(c2cccc(C)c2C)C1=O` (stereo not drawn), the TGI with A549 NSCLC, in the assay with CAKI-1 renal, with HT29 colon, in the assay with KM12 colon, in the assay with M14 melanoma and in the assay on NCI-H226 lung was above 100 µM each time. For the same molecule, the TGI in the assay with OVCAR-3 ovarian, in the assay on OVCAR-5 ovarian, with OVCAR-8 ovarian, in the assay with SF-539 CNS, in the assay with SN12C renal and in the assay on SNB-75 CNS was above 100 µM throughout. In addition, in the assay with UO-31 renal, the TGI was above 100 µM.

On to `O=S1(=O)OCCOS(=O)(=O)C1I`, for which the TGI with A549 NSCLC, in the assay on CAKI-1 renal, in the assay on HCC-2998 colon, in the assay with HT29 colon, in the assay on K-562 leukemia and in the assay with KM12 colon was above 100 µM each time. Also, the TGI in the assay with M14 melanoma, in the assay with NCI-H226 lung, in the assay on OVCAR-3 ovarian, in the assay on OVCAR-8 ovarian, in the assay on SF-539 CNS and in the assay on SK-MEL-28 melanoma was above 100 µM each time. In addition, the TGI in the assay with SN12C renal, in the assay on SNB-75 CNS and with UO-31 renal was above 100 µM each time.

With `CC1(C)COC(C23C4C5C2C2C3C4C52I)=N1` (stereo not drawn), the TGI with A549 NSCLC, with CAKI-1 renal, in the assay with HCC-2998 colon, in the assay with HT29 colon, in the assay with K-562 leukemia and with M14 melanoma was above 100 µM throughout. The TGI in the assay on NCI-H226 lung, in the assay on OVCAR-3 ovarian, in the assay with OVCAR-5 ovarian, in the assay with OVCAR-8 ovarian, with SF-539 CNS and in the assay on SK-MEL-28 melanoma was above 100 µM in each case. For the same molecule, the TGI in the assay with SN12C renal, with U251 CNS and with UO-31 renal was above 100 µM each time.

Regarding `COC(=O)CCCN(C)c1n[nH]c(N)n1`, the TGI in the assay with A549 NSCLC, with HCC-2998 colon, in the assay on HT29 colon, with K-562 leukemia, in the assay with KM12 colon and in the assay with M14 melanoma was above 100 µM each time. The TGI in the assay with NCI-H226 lung, with OVCAR-3 ovarian, in the assay with OVCAR-5 ovarian, in the assay with OVCAR-8 ovarian, with SF-539 CNS and with SK-MEL-28 melanoma was above 100 µM in each case. Also, the TGI with SN12C renal, in the assay with SNB-75 CNS, in the assay with U251 CNS and in the assay with UO-31 renal was above 100 µM throughout.

Take `CC(=O)c1cccc(NC(=O)/C(=N\NC(C)(C)C)c2c(O)c3ccccc3oc2=O)c1`: the TGI with A549 NSCLC, with CAKI-1 renal, in the assay with HCC-2998 colon, in the assay on HT29 colon, with KM12 colon and in the assay on M14 melanoma was above 100 µM throughout. Moreover, the TGI in the assay with NCI-H226 lung, in the assay on OVCAR-3 ovarian, in the assay on OVCAR-8 ovarian, with SF-539 CNS, in the assay on SK-MEL-28 melanoma and in the assay on SN12C renal was above 100 µM each time. The TGI with SNB-75 CNS and with UO-31 renal was above 100 µM throughout.

For `COc1cccc(-c2cc(=O)c3cc(OC)c(OC)cc3[nH]2)c1`, the TGI with A549 NSCLC, in the assay on HCC-2998 colon, in the assay with HT29 colon, with K-562 leukemia, in the assay on KM12 colon and in the assay on M14 melanoma was above 100 µM throughout. For the same molecule, the TGI in the assay on NCI-H226 lung is 79.8 µM; in the assay with OVCAR-3 ovarian, above 100 µM; with OVCAR-8 ovarian, above 100 µM; with SF-539 CNS, 77.3 µM; in the assay on SK-MEL-28 melanoma, above 100 µM; in the assay on SN12C renal, above 100 µM. The TGI in the assay on SNB-75 CNS, with U251 CNS and in the assay on UO-31 renal was above 100 µM in each case. Also, the GI50 in the assay with NCI-H226 lung was 21.5 µM; with OVCAR-3 ovarian, 33.5 µM.

Take `CC1CN=C(Nc2ccc(F)cc2F)S1` (stereo not drawn): the TGI in the assay with A549 NSCLC, with CAKI-1 renal, in the assay with HCC-2998 colon, in the assay with K-562 leukemia, with KM12 colon and in the assay on OVCAR-3 ovarian was above 100 µM in each case. The TGI with OVCAR-5 ovarian, with OVCAR-8 ovarian, in the assay on SF-539 CNS, with SK-MEL-28 melanoma, in the assay on SN12C renal and in the assay with SNB-75 CNS was above 100 µM each time. The TGI with U251 CNS and in the assay with UO-31 renal was above 100 µM each time.

Regarding `C=CCCC(OCOCCOC)c1cc(C)c(O[Si](C)(C)C(C)(C)C)c(C)c1` (stereo not drawn), the TGI is 38.5 µM in the assay with A549 NSCLC; 27.5 µM in the assay with HCC-2998 colon; 26.2 µM in the assay with K-562 leukemia; 29.3 µM in the assay on KM12 colon; above 100 µM in the assay on M14 melanoma; 26.4 µM in the assay on NCI-H226 lung. For the same molecule, the TGI worked out at 27.7 µM in the assay with OVCAR-3 ovarian; 32.4 µM in the assay with OVCAR-5 ovarian; 39.8 µM with OVCAR-8 ovarian; 38.6 µM in the assay with SF-539 CNS; 64.7 µM with SK-MEL-28 melanoma; 32.2 µM with SN12C renal. Besides, the TGI was 35.6 µM in the assay with SNB-75 CNS, 27.3 µM with U251 CNS and 23.9 µM with UO-31 renal.
